The subject of assay [1] is non-senescent aortic endothelial (Endo Aort) cells and pre-adipocytes (Pread). Briefly: Nutlin-3a toxicity, cell counts of non-senescent endothelial cells and pre-adipocytes. Conditions: 0, 2.5, 10 μM, 11 days. The format is cell-based. As to the method: Non-senescent aortic endothelial (Endo Aort) cells and pre-adipocytes (Pread) were also treated with varying concentrations (0, 2.5 μM, and 10 μM) of Nutlin-3a for a period of 11 days to assess Nutlin-3a toxicity, as described above. Cell counts were taken at the start at Day 0 (NS start) and at the end of Nutlin-3a treatment (NS 0). The difference between counts of cells not treated with Nutlin-3a on day 11 (NS 0) and cell counts from NS start reflects the cell growth over the indicated time period. […] Decrease in apparent survival between NS 0 and NS 2.5 and between NS 0 and NS 10 reflects a decrease in cell growth.

In assay [2] the test system is doxorubicin-induced senescent foreskin fibroblasts (HCA2) and aortic endothelial cells (Endo Aort). Kind of assay: Cell count survival assay of Nutlin-3a on doxorubicin-induced senescent cells. The format is cell-based. Conditions: doxorubicin 250 nM 24 h; HCA2 9 days, aortic endothelial cells 11 days of Nutlin-3a. As to the method: (§1) Foreskin fibroblast cell lines HCA2 and BJ, lung fibroblast cell line IMR90, and mouse embryonic fibroblasts were seeded in six-well plates and induced to senesce with 10 Gy of ionizing radiation (IR) or a 24 hr treatment with doxorubicin (Doxo). Senescent phenotype was allowed to develop for at least 7 days, at which point a cell count was made to determine the baseline number of cells. Nutlin-3a treatment was then initiated for a period of at least 9 days. Media alone or media with drug as appropriate was refreshed at least every three days. At the end of the assay time period, cells are counted. Each condition was seeded in three plate wells and counted independently. Initial cell count serves as a control to determine the induction of senescence, as compared to the last day count without nutlin treatment. Initial non-senescent cell count serves as a proxy to determine Nutlin-3a toxicity.
Foreskin fibroblasts (HCA2) and aortic endothelial cells (Endo Aort) were treated with doxorubicin (250 nM) for one day (24 hours) to induce senescence (see FIG. 1). Eight days following doxorubicin treatment, Nutlin-3a treatment was initiated. HCA2 cells were exposed to Nutlin-3a for 9 days, and aortic endothelial cells were exposed to Nutlin-3a for 11 days. […] Percent survival was calculated as [cell count on the last day of Nutlin-3a treatment/initial cell count on first day of Nutlin-3a treatment].

Assay [3] has as its system IL-6 in senescent IMR90 cells. Kind of assay: IL-6 immunofluorescence and ELISA in irradiated senescent IMR90 cells treated with Nutlin-3a. The format is cell-based, human. How it is done:
Primary human fibroblast (IMR90) cells were induced to senesce by applying 10 Gy of irradiation. Seven days after irradiation (Day 0), cells were treated with 10 μM Nutlin-3a or vehicle (DMSO) for nine days (Day 9). The drug or vehicle was refreshed every three days. Drug/vehicle was removed at Day 9 and the cells were cultured for an additional three days (Day 12). Cells were then fixed with 4% paraformaldehyde and stained by immunofluorescence with a specific anti-IL-6 antibody (R&D, AF-206-NA). Cells were counterstained with DAPI for nuclear visualization. The percent IL-6 positive cells is illustrated in FIG. 12A. IL-6 positive cells were determined in an unbiased manner using CellProfiler software. Three different cultures were assessed. Non-senescent cells had no detectable cells IL-6 production while senescent cells were about 8% positive at day 9 after vehicle (DMSO) treatment (16 days after irradiation). […] At day 12, 3 days after Nutlin-3a was removed and 19 days after irradiation, IL-6 positive cells in the vehicle control were about 9% and Nutlin3a treated cells were less than 1% positive for IL-6.
In another experiment, IMR90 cells were induced to senesce by irradiation (10 Gy). Seven days after irradiation, cells were treated with 10 μM Nutlin-3a or vehicle (DMSO) for nine days (Day 9). The drug or vehicle was refreshed every three days. Drug/vehicle was removed at Day 9 and the cells were cultured for an additional six days. Conditioned media from the treated cells was collected, and IL-6 measurement by ELISA was performed (Perkin Elmer, AL223F). IL-6 levels in culture media were determined by ELISA using a kit according to manufacturer's instructions (AL223F, Perkin Elmer). Cells were fixed with 4% paraformaldehyde and stained by immunofluorescence with a specific anti-IL-6 antibody (R&D, AF-206-NA). The IL-6 level determined by ELISA was normalized to the number of cells in each well. The data are presented in FIG. 22C as a relative level of IL-6 in the treated cells compared to the level in non-senescent cells (NS). […]
Background: In an ELISA, binding on a coated surface is turned into a signal by an enzyme label.

The test system of assay [4] is senescent mouse embryonic fibroblasts (MEF). Briefly: Cell count survival assay of Nutlin-3a on irradiation-induced senescent MEFs. The format is cell-based. Conditions: 10 Gy irradiated MEF; Nutlin-3a 0, 2.5, 10 μM for 9 days. As to the method: as §1
Foreskin fibroblast cell lines HCA2 and BJ, lung fibroblast cell line IMR90, and mouse embryonic fibroblasts were exposed to 10 Gy of ionizing radiation (IR) to induce senescence. […] Percent survival was calculated as [cell count on day 9 of Nutlin-3a treatment/initial cell count on first day of Nutlin-3a treatment].

Assay [5] deals with pATM, γH2AX, IkBa, MDM2, p53, p21 in senescent IMR90 cells. Kind of assay: Immunoblot of DNA damage response proteins in irradiated senescent IMR90 cells treated with Nutlin-3a. Format: cell-based, human. How it is done: Primary human fibroblast (IMR90) cells were induced to senesce by applying 10 Gy of irradiation. Seven days after irradiation (Day 0), cells were treated with 10 μM Nutlin-3a or vehicle (DMSO) for nine days (Day 9). The drug or vehicle was refreshed every three days. Drug/vehicle was removed at Day 9 and the cells were cultured for an additional six days in media without drug or DMSO, changing media every three days. Cells were collected at Day 0 (non-senescent cells), Day 9, Day 12, and Day 15, and protein extracted and processed for immunoblotting (Western blotting). Two samples were processed at each time point; the results are provided for one sample in FIG. 14.
Background: Immunoblotting shows a protein as a band on a membrane.

The subject of assay [6] is paclitaxel treated p16-3MR mice. Briefly: Chemotherapy related side effects: voluntary exercise (wheel counts) after paclitaxel in p16-3MR mice. The format is in vivo, mouse. Conditions: ABT-263 100 mg/kg ip daily 7 days; ganciclovir 25 mg/kg ip daily 3 days. How it is done:
ABT-263 (100 mg/kg) was administered intraperitoneally daily for seven days after paclitaxel administration. Two days after the last dose of ABT-263, all groups of animals were housed in metabolic cages (promethion, sable systems international, Las Vegas, Nev.) to monitor voluntary exercise as determined by wheel counts. Data were collected and analyzed two days later. Clearance of senescent cells by ABT-263 and ganciclovir restored approximately 70% of wheel count reduction caused by chemotherapy treatment.

Each structure is given as a SMILES string.

Turning to `COc1ccc(C2=N[C@@H](c3ccc(Cl)cc3)[C@@H](c3ccc(Cl)cc3)N2C(=O)N2CCNC(=O)C2)c(OC(C)C)c1` [Nutlin-3a], in assay [1], the “toxicity to non-senescent aortic endothelial cells and pre-adipocytes (percent growth)” value is reported as “reduces proliferation but is non-toxic”. In assay [2], the “sensitivity of doxorubicin-induced senescent cells (percent survival)” value is listed as “sensitive”. Further, the “IL-6 level (ELISA), fold lower than DMSO treated senescent cells” value in assay [3] (10 μM for 9 days, then up to 6 days without drug) is on record as 5-9 fold. Moreover, the “percent IL-6 positive cells” value is recorded as “below 5%” in assay [3] (10 μM, day 9 (16 days after irradiation)) and “less than 1%” in assay [3] (day 12, 3 days after drug removal). The “cell survival of senescent MEF (percent survival)” value in assay [4] was “reduced cell survival”. Further, the “phosphorylation of the kinase ATM (pATM S1981)” value in assay [5] (10 μM, also after drug removal) is “lower”. Further, the “level of IkBa” value in assay [5] (after drug is removed) is “approaches the level of IkBa in non-senescent cells”. Moreover, in assay [5] (after treatment and after drug removal), the “phosphorylation of H2AX (γH2AX)” value is “declining levels of phosphorylation”. The “levels of MDM2, p53 and p21 protein” value in assay [5] (drug present, decreased when drug removed) was “elevated”.
On to `Nc1nc(O)c2ncn(COC(CO)CO)c2n1` [ganciclovir], for which the “restoration of wheel count reduction caused by chemotherapy treatment” value in assay [6] is “approximately 70%”.

(Values after patent US20190022225A1, “PROTOCOL FOR INCREASING LIFE EXPECTANCY IN A TEST SUBJECT” (Mayo Foundation for Medical Education and Research, priority 2015, published 2019).)
